As usually defined, the Ki is the equilibrium dissociation constant of an inhibitor or competing ligand from its target. For orientation: inhibition means the change of the read-out against control, counted positive when it falls.

“Also recorded” adds a separate entry of the source. Like-named read-outs stand apart in the source and are kept apart here.

Experimental findings from article PMC7503500, “A Structure-Activity Relationship Comparison of Imidazodiazepines Binding at Kappa, Mu, and Delta Opioid Receptors and the GABAA Receptor” (Molecules, 2020) are described below.

The subject of assay [1] is synaptic benzodiazepine-sensitive receptors (BZR), GABAAR. The assay is described as follows: 3H-flunitrazepam binding, rat brain homogenate. The conditions noted are these: for BZR % (percent inhibition): at 10,000 nM; for Ki: read-out: BZR (Ki).
Assay [2] deals with µ opioid receptor (MOR) (Homo sapiens, UniProt P35372). The assay is described as follows: Radioligand competition binding, MOR ([3H]-DAMGO), HEK293 cell homogenates. To be noted: [3H]-DAMGO; for inhibition at 10 µM: read-out: MOR % (percent inhibition), at 10,000 nM; for MOR % (percent inhibition): at 10,000 nM. In general terms: Displacement assays read how much labelled ligand stays bound in the presence of the test substance.

In assay [3] the target is δ opioid receptor (DOR) (Homo sapiens, UniProt P41143). In words: Radioligand competition binding, DOR ([3H]-DADLE), HEK293 cell homogenates. The conditions noted are these: for inhibition at 10 µM: read-out: DOR % (percent inhibition), at 10,000 nM; for DOR % (percent inhibition): at 10,000 nM.
Assay [4] has as its target κ opioid receptor (KOR) (Homo sapiens, UniProt P41145). In words: Radioligand competition binding, KOR ([3H]-U69593), HEK293 cell homogenates. The conditions noted are these: for inhibition at 10 µM: read-out: KOR % (percent inhibition), at 10,000 nM; for inhibition at 10 µM / KOR % (percent inhibition): [3H]-U69593; for KOR affinity (in words): screening at 10,000 nM; for KOR % (percent inhibition): at 10,000 nM.

Where [5] appears, read: read-out: KOR (Ki), [3H]-U69593, HEK293 homogenates.

`C[C@H]1N=C(c2ccccc2F)c2cc(Br)ccc2-n2cnc(C(=O)O)c21` [GL-II-93]: in assay [1], the “BZR % (percent inhibition)” value is listed as 73% and the Ki turned out to be 86 nM. Moreover, the inhibition at 10 µM in assay [2] is 0%. In addition, the inhibition at 10 µM in assay [3] is 0%. In assay [4], the inhibition at 10 µM worked out at 0% and the “KOR affinity (in words)” value is “No KOR affinity; also recorded: insignificant KOR affinity”.

Consider `C[C@H]1N=C(c2ccccc2F)c2cc(Br)ccc2-n2cnc(-c3cnco3)c21` [GL-III-36], for which, in assay [1], the “BZR % (percent inhibition)” value is recorded as 86% and the Ki was 319 nM. The “MOR % (percent inhibition)” value in assay [2] is 0%. The “DOR % (percent inhibition)” value in assay [3] was found to be 12%. Further, the “KOR % (percent inhibition)” value in assay [4] is recorded as 88%. Besides, the Ki in assay [4] (setting [5]) came out at 246 nM.

With `CCOC(=O)c1ncn2c1[C@@H](C)N=C(c1ccccc1F)c1cc(C3CC3)ccc1-2` [GL-III-42], in assay [1], the “BZR % (percent inhibition)” value stood at 62% and the Ki turned out to be 726 nM. Further, the “MOR % (percent inhibition)” value in assay [2] is given as 0%. In addition, the “DOR % (percent inhibition)” value in assay [3] was found to be 13%. The inhibition at 10 µM in assay [4] came to 86%.

On to `C[C@H]1N=C(c2ccccc2F)c2cc(Cl)ccc2-n2cnc(C(=O)O)c21` [GL-III-54], for which, in assay [1], the “BZR % (percent inhibition)” value amounted to 100%. In assay [1], the Ki came out at 42 nM. Moreover, the values for the inhibition at 10 µM in assay [2], in assay [3] and in assay [4] were 0%, 0% and 22%, respectively.

Regarding `Cc1noc(-c2ncn3c2[C@@H](C)N=C(c2ccccc2F)c2cc(Br)ccc2-3)n1` [GL-III-60], in assay [1], the “BZR % (percent inhibition)” value is 100% and the Ki was 784 nM. Besides, the “MOR % (percent inhibition)” value in assay [2] came to 26%. In assay [3], the “DOR % (percent inhibition)” value is given as 18%. The “KOR % (percent inhibition)” value in assay [4] is recorded as 87%. In addition, the Ki in assay [4] (setting [5]) is 232 nM.

Turning to `Cc1noc(-c2ncn3c2[C@@H](C)N=C(c2ccccc2F)c2cc(C4CC4)ccc2-3)n1` [GL-III-63], the “BZR % (percent inhibition)” value in assay [1] stood at 28%. For the same molecule, the “MOR % (percent inhibition)” value in assay [2] is 8%. The “DOR % (percent inhibition)” value in assay [3] stood at 31%. In addition, the “KOR % (percent inhibition)” value in assay [4] is on record as 78%. Further, in assay [4] (setting [5]), the Ki amounted to 678 nM.

On to `Cc1noc(-c2ncn3c2[C@@H](C)N=C(c2ccccn2)c2cc(C4CC4)ccc2-3)n1` [GL-III-64], for which, in assay [1], the “BZR % (percent inhibition)” value worked out at 92% and the Ki turned out to be 1490 nM. Besides, the “MOR % (percent inhibition)” value in assay [2] was determined as 7%. Besides, the “DOR % (percent inhibition)” value in assay [3] was determined as 14%. In assay [4], the “KOR % (percent inhibition)” value came to 60%. Also, the Ki in assay [4] (setting [5]) turned out to be 2050 nM.

As for `C#Cc1ccc2c(c1)C(c1ccccc1F)=N[C@H](C)c1c(C(=O)NC(C)C)ncn1-2` [GL-III-66], in assay [1], the “BZR % (percent inhibition)” value was found to be 88%. Further, the Ki is 271 nM in assay [1] and 233 nM in assay [4]. Besides, the inhibition at 10 µM came to 0% in assay [2], 0% in assay [3] and 63% in assay [4].

For the molecule `CCNC(=O)c1ncn2c1[C@@H](C)N=C(c1ccccc1F)c1cc(C3CC3)ccc1-2` [GL-III-68], the “BZR % (percent inhibition)” value in assay [1] is on record as 100%. The Ki in assay [1] is 452 nM; in assay [4], 150 nM. Also, the inhibition at 10 µM worked out at 0% in assay [2], 10% in assay [3] and 88% in assay [4].

For the molecule `C[C@H]1N=C(c2ccccc2F)c2cc(Br)ccc2-n2cnc(C(=O)N(C)C)c21` [GL-III-69], the “BZR % (percent inhibition)” value in assay [1] was 100%. Moreover, the Ki in assay [1] worked out at 446 nM; in assay [4], 511 nM. In addition, the inhibition at 10 µM in assay [2] was found to be 0%; in assay [3], 10%; in assay [4] it was 75%.

On to `C[C@H]1N=C(c2ccccc2F)c2cc(C3CC3)ccc2-n2cnc(C(=O)N(C)C)c21` [GL-III-70], for which the “BZR % (percent inhibition)” value in assay [1] came to 100%. For the same molecule, the Ki in assay [1] is 3400 nM; in assay [4], 800 nM. In addition, the inhibition at 10 µM in assay [2] was determined as 0%; in assay [3], 50%; in assay [4] it was 68%.

`C#Cc1ccc2c(c1)C(c1ccccc1F)=N[C@H](C)c1c(-c3cnco3)ncn1-2` [GL-III-73]: the “BZR % (percent inhibition)” value in assay [1] was determined as 65%. For the same molecule, the Ki was 602 nM in assay [1] and 449 nM in assay [4] (setting [5]). Moreover, the “MOR % (percent inhibition)” value in assay [2] was found to be 12%. Moreover, the “DOR % (percent inhibition)” value in assay [3] is on record as 4%. The “KOR % (percent inhibition)” value in assay [4] was 74%.

Turning to `C[C@@H]1N=C(c2ccccc2F)c2cc(Br)ccc2-n2cnc(-c3cnco3)c21` [GL-III-76], the “BZR % (percent inhibition)” value in assay [1] was 100%. The results for the inhibitory constant (Ki) in assay [1] and in assay [4] (setting [5]) were 120 nM and 221 nM, respectively. Besides, in assay [2], the “MOR % (percent inhibition)” value worked out at 3%. Also, the “DOR % (percent inhibition)” value in assay [3] was determined as 0%. Also, the “KOR % (percent inhibition)” value in assay [4] was 83%.

As for `C#Cc1ccc2c(c1)C(c1ccccc1F)=N[C@@H](C)c1c(-c3cnco3)ncn1-2` [GL-III-78], the “BZR % (percent inhibition)” value in assay [1] is recorded as 101%. Besides, the Ki in assay [1] worked out at 261 nM; in assay [4] (setting [5]) it was 451 nM. For the same molecule, the “MOR % (percent inhibition)” value in assay [2] is given as 10%. In addition, the “DOR % (percent inhibition)” value in assay [3] came to 9%. For the same molecule, the “KOR % (percent inhibition)” value in assay [4] turned out to be 74%.

In the case of `C#Cc1ccc2c(c1)C(c1ccccc1F)=NCc1c(-c3cnco3)ncn1-2` [KRM-II-18B], the “BZR % (percent inhibition)” value in assay [1] was 97%. In addition, the Ki in assay [1] was 38 nM; in assay [4], 361 nM. The inhibition at 10 µM in assay [2] is 11%; in assay [3], 20%; in assay [4], 89%.

Turning to `Brc1ccc2c(c1)C(c1ccccc1)=NCc1c(-c3cnco3)ncn1-2` [KRM-II-73], the “BZR % (percent inhibition)” value in assay [1] is on record as 97%. Also, the Ki in assay [1] was determined as 45 nM; in assay [4], 736 nM. In addition, the figures for the inhibition at 10 µM in assay [2], in assay [3] and in assay [4] were 11%, 32% and 83%, respectively.

`Cc1ncoc1-c1ncn2c1CN=C(c1ccccn1)c1cc(Br)ccc1-2` [KRM-II-81]: in assay [1], the “BZR % (percent inhibition)” value came out at 86% and the Ki turned out to be 294 nM. In assay [2], the inhibition at 10 µM came to 7%. For the same molecule, the inhibition at 10 µM in assay [3] worked out at 15%. Further, in assay [4], the inhibition at 10 µM stood at 46% and the “KOR affinity (in words)” value is given as “insignificant KOR affinity”.

As for `C#Cc1ccc2c(c1)C(c1ccccc1)=NCc1c(-c3cnco3)ncn1-2` [KRM-II-82], in assay [1], the “BZR % (percent inhibition)” value is recorded as 95%. For the same molecule, the Ki in assay [1] was determined as 96 nM; in assay [4], 1200 nM. For the same molecule, the inhibition at 10 µM in assay [2] was found to be 5%; in assay [3] it was 20%; in assay [4] it was 78%.

Regarding `Brc1ccc2c(c1)C(c1ccccn1)=NCc1c(-c3cnco3)ncn1-2` [KRM-II-97], the “BZR % (percent inhibition)” value in assay [1] stood at 93%. The Ki in assay [1] was 140 nM; in assay [4] it was 1960 nM. For the same molecule, the inhibition at 10 µM in assay [2] amounted to 18%; in assay [3] it was 8%; in assay [4] it was 62%.

Regarding `Cc1ncoc1-c1ncn2c1CN=C(c1ccccc1F)c1cc(Br)ccc1-2` [KRM-III-59], the “BZR % (percent inhibition)” value in assay [1] stood at 96%. Also, the Ki in assay [1] turned out to be 20 nM; in assay [4], 408 nM. Besides, the inhibition at 10 µM was determined as 0% in assay [2], 11% in assay [3] and 73% in assay [4].

`C#Cc1ccc2c(c1)C(c1ccccc1F)=NCc1c(-c3ocnc3C)ncn1-2` [KRM-III-65]: the “BZR % (percent inhibition)” value in assay [1] is reported as 96%. In addition, the results for the Ki in assay [1] and in assay [4] were 45 nM and 879 nM, respectively. For the same molecule, the inhibition at 10 µM came to 0% in assay [2], 16% in assay [3] and 64% in assay [4].

Consider `Cc1ncoc1-c1ncn2c1CN=C(c1ccccc1)c1cc(Br)ccc1-2` [KRM-III-66], for which the “BZR % (percent inhibition)” value in assay [1] turned out to be 86%. Also, the Ki came out at 49 nM in assay [1] and 756 nM in assay [4]. For the same molecule, the inhibition at 10 µM in assay [2] stood at 12%; in assay [3] it was 11%; in assay [4], 67%.

Consider `C#Cc1ccc2c(c1)C(c1ccccn1)=NCc1c(-c3cnco3)ncn1-2` [KRM-III-67], for which the “BZR % (percent inhibition)” value in assay [1] was determined as 71%. For the same molecule, in assay [1], the Ki came out at 144 nM. The values for the inhibition at 10 µM in assay [2], in assay [3] and in assay [4] were 30%, 3% and 48%, respectively.

For the molecule `C#Cc1ccc2c(c1)C(c1ccccn1)=NCc1c(-c3ocnc3C)ncn1-2` [KRM-III-79], in assay [1], the “BZR % (percent inhibition)” value is 81%. Moreover, in assay [1], the Ki is 308 nM. For the same molecule, the inhibition at 10 µM in assay [2] came to 32%; in assay [3], 1%; in assay [4] it was 9%.

Consider `C#Cc1ccc2c(c1)C(c1ccccn1)=NCc1c(C(=O)OC(C)C)ncn1-2` [MP-II-068], for which, in assay [1], the “BZR % (percent inhibition)” value came out at 97% and the Ki was 42 nM. The inhibition at 10 µM in assay [2] is 0%. Also, in assay [3], the inhibition at 10 µM was determined as 34%. Also, in assay [4], the “Affinity towards KOR as % of the GL-I-30-KOR binding affinity” value amounted to 4.9%, affinity was put at a Ki of 550 nM and the inhibition at 10 µM was 85%.

In the case of `C#Cc1ccc2c(c1)C(c1ccccc1F)=NCc1c(C(=O)OCc3ccccc3)ncn1-2` [MP-II-075], the “BZR % (percent inhibition)” value in assay [1] worked out at 98%. The Ki in assay [1] is 21 nM; in assay [4] (setting [5]) it was 547 nM. Also, the inhibition at 10 µM in assay [2] was 0%; in assay [3] it was 16%; in assay [4], 84%.
